According to patent publication US12286442B2, “Methods and materials for increasing transcription factor eb polypeptide levels” (University of Pittsburgh—Of the Commonwealth System of …, priority 2019, dated 2025):

Legend:
BEAS-2B cells = assay: Toxicity: compound concentration needed to induce greater than 50 percent of cell loss; type: cell-based, human; settings: 18 hours incubation
Outline: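 Reported value is the concentration giving greater than 50 percent cell loss, grouped into bins (≥25 μM; between 1 and 25 μM; ≤1 μM as "+++"). Measured by high-content imaging of DAPI-stained BEAS-2B TFEB-EGFP cells fixed after 18 h compound exposure.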

TFEB = assay: High content screen measuring TFEB nuclear accumulation (TFEB nuclear/cytosol ratio) in BEAS-2B cells stably expressing TFEB-EGFP; type: cell-based, human; settings: 18 hours incubation
Outline: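 Readout: lowest compound concentration giving a 25% rise in nuclear/cytosol TFEB-GFP ratio, from DAPI-masked nuclear and mask-expanded cytosolic signals. Cells (BEAS-2B, TFEB-EGFP stable, ~2300–2500/well) rested 8 hours, then treated 18 hours with compound serial dilutions in 2% FBS medium before PFA fixation and DAPI staining.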

Row | SMILES | toxicity (compound concentration needed to induce greater than 50 percent of cell loss) (BEAS-2B cells) | efficacy (minimal compound concentration needed to increase TFEB nuclear/cytosol ratio by 25%) (TFEB)
1 | COc1ccc2nc(-c3ccncc3)nc(Nc3ccc4nc(C(C)C)sc4c3)c2c1 [Compound 376] | + (cell loss of greater than 50 percent at a concentration that equals or is greater than 25 μM was represented as) | +++ (“+++” equals ≤1 μM)
2 | CCCCNc1nc(-c2ccncc2)nc2ccccc12 [Compound 164] | + (cell loss of greater than 50 percent at a concentration that equals or is greater than 25 μM was represented as) | + (“+” equals >25 μM)
3 | Cc1cc2cc(Nc3nc(-c4ccncc4)nc4ccccc34)ccc2[nH]1 [Compound 62] | +++ (cell loss of greater than 50 percent at a concentration that equals or is less than 1 μM was represented as “+++.”) | +++ (“+++” equals ≤1 μM)
4 | O=C(Cn1c(=O)n(CC2CCCO2)c(=O)c2ccc(C(=O)NCCc3ccccc3)cc21)Nc1ccc(Br)cc1 (centres unmarked) [Compound 217] | + (cell loss of greater than 50 percent at a concentration that equals or is greater than 25 μM was represented as) | + (“+” equals >25 μM)
5 | CC(=O)c1cc(F)cc(Nc2nc(-c3ccncc3)nc3ccccc23)c1 [Compound 51] | + (cell loss of greater than 50 percent at a concentration that equals or is greater than 25 μM was represented as) | + (“+” equals >25 μM)
6 | Cc1ccc2nc(-c3ccncc3)nc(Nc3ccc4[nH]ccc4c3)c2c1 [Compound 116] | + (cell loss of greater than 50 percent at a concentration that equals or is greater than 25 μM was represented as) | +++ (“+++” equals ≤1 μM)
7 | CC(C)(C)c1cc2cc(Nc3nc(-c4ccncc4)nc4ccccc34)ccc2[nH]1 [Compound 74] | ++ (cell loss of greater than 50 percent at a concentration less than 25 μM and greater than 1 μM was represented as) | +++ (“+++” equals ≤1 μM)
8 | CCc1nc2ccc(Nc3nc(-c4ccncc4)nc4ccccc34)cc2o1 [Compound 360] | + (cell loss of greater than 50 percent at a concentration that equals or is greater than 25 μM was represented as) | + (“+” equals >25 μM)
9 | c1ccc2c(Nc3ccc4[nH]ncc4c3)nc(-c3cc[nH]c3)nc2c1 [Compound 89] | ++ (cell loss of greater than 50 percent at a concentration less than 25 μM and greater than 1 μM was represented as) | ++ (“++” equals between ≤25 μM and >1 μM)
10 | O=C(NCc1ccco1)c1ccc2c(=O)n(-c3ccccc3)c(=O)n(Cc3cccc(F)c3)c2c1 [Compound 234] | + (cell loss of greater than 50 percent at a concentration that equals or is greater than 25 μM was represented as) | ++ (“++” equals between ≤25 μM and >1 μM)
11 | Fc1cccc2c(Nc3ccc4nc(C5CC5)sc4c3)nc(-c3ccncc3)nc12 [Compound 373] | + (cell loss of greater than 50 percent at a concentration that equals or is greater than 25 μM was represented as) | ++ (“++” equals between ≤25 μM and >1 μM)
12 | Cc1nc2ccc(Nc3nc(-c4ccncc4)nc4ncccc34)cc2o1 [Compound 146] | + (cell loss of greater than 50 percent at a concentration that equals or is greater than 25 μM was represented as) | +++ (“+++” equals ≤1 μM)
13 | CCc1nc2ccc(Nc3nc(-c4ccncc4)nc4ncccc34)cc2o1 [Compound 356] | + (cell loss of greater than 50 percent at a concentration that equals or is greater than 25 μM was represented as) | +++ (“+++” equals ≤1 μM)
14 | c1cc(-c2nc(Nc3ccc4nc(C5CC5)sc4c3)c3cnccc3n2)ccn1 [Compound 121] | + (cell loss of greater than 50 percent at a concentration that equals or is greater than 25 μM was represented as) | + (“+” equals >25 μM)
15 | O=C(NCCc1ccccc1)c1ccc2c(=O)n(-c3ccccc3)c(=O)[nH]c2c1 [Compound 238] | + (cell loss of greater than 50 percent at a concentration that equals or is greater than 25 μM was represented as) | + (“+” equals >25 μM)
16 | O=[N+]([O-])c1ccc(-c2nc(Nc3cccc(F)c3)c3ccccc3n2)cc1 [Compound 9] | + (cell loss of greater than 50 percent at a concentration that equals or is greater than 25 μM was represented as) | + (“+” equals >25 μM)
17 | Fc1cc(Nc2nc(-c3cc[nH]c3)nc3ncccc23)cc2cc[nH]c12 [Compound 385] | + (cell loss of greater than 50 percent at a concentration that equals or is greater than 25 μM was represented as) | ++ (“++” equals between ≤25 μM and >1 μM)
18 | c1ccc2c(Nc3ccc4scnc4c3)nc(-c3ccncc3)nc2c1 [Compound 27] | + (cell loss of greater than 50 percent at a concentration that equals or is greater than 25 μM was represented as) | +++ (“+++” equals ≤1 μM)
19 | O=[N+]([O-])c1cccc(-c2nc(Nc3cccc(F)c3)c3ccccc3n2)c1 [Compound 161] | + (cell loss of greater than 50 percent at a concentration that equals or is greater than 25 μM was represented as) | + (“+” equals >25 μM)
20 | Fc1cccc2c(Nc3cc(F)c4[nH]ccc4c3)nc(-c3ccncc3)nc12 [Compound 158] | + (cell loss of greater than 50 percent at a concentration that equals or is greater than 25 μM was represented as) | +++ (“+++” equals ≤1 μM)
21 | c1cnc2nc(-c3cncs3)nc(Nc3ccc4[nH]ccc4c3)c2c1 [Compound 386] | + (cell loss of greater than 50 percent at a concentration that equals or is greater than 25 μM was represented as) | +++ (“+++” equals ≤1 μM)
22 | OC1CCN(c2nc(-c3ccncc3)nc3ccccc23)CC1 [Compound 177] | + (cell loss of greater than 50 percent at a concentration that equals or is greater than 25 μM was represented as) | + (“+” equals >25 μM)
